# From ChEMBL document CHEMBL3580540, “N1-linked melatonin dimers as bivalent ligands targeting dimeric melatonin receptors” (Medchemcomm, 2014)
# Tests used:
# Type in all cases: cell-based
# [1] = Displacement of 2-[125I]-iodomelatonin from human MT1 receptor expressed in CHO cells by Gamma counting
# [2] = Displacement of 2-[125I]-iodomelatonin from human MT2 receptor expressed in CHO cells by Gamma counting
# HEK-293T [3] = experiment: Binding affinity to Rluc-tagged MT1/YFP-tagged MT1 (unknown origin) transfected in HEK293T cells assessed as bioluminescence resonance energy transfer ratio at 10 uM after 10 mins by lumino/fluorometer (reference value: 0.092 +/- 0.007); details: Homo sapiens
# HEK-293T [4] = experiment: Binding affinity to Rluc-tagged MT1/YFP-tagged MT2 (unknown origin) transfected in HEK293T cells assessed as bioluminescence resonance energy transfer ratio at 10 uM after 10 mins by lumino/fluorometer (reference value: 0.254 +/- 0.035); details: Homo sapiens
# HEK-293T [5] = experiment: Binding affinity to Rluc-tagged MT2/YFP-tagged MT2 (unknown origin) transfected in HEK293T cells assessed as bioluminescence resonance energy transfer ratio at 10 uM after 10 mins by lumino/fluorometer (reference value: 1.468 +/- 0.560); details: Homo sapiens
# HEK-293T [6] = experiment: Binding affinity to Rluc-tagged MT2/YFP-tagged MT1 (unknown origin) transfected in HEK293T cells assessed as bioluminescence resonance energy transfer ratio at 10 uM after 10 mins by lumino/fluorometer (reference value: 2.300 +/- 0.777); details: Homo sapiens
Structure (SMILES),pKi [1],pKi [2],Ratio (HEK-293T [3]),Ratio (HEK-293T [4]),Ratio (HEK-293T [5]),Ratio (HEK-293T [6])
COc1ccc2c(c1)c(CCNC(C)=O)cn2CCCCC(=O)NCCCCCCCNC(=O)CCCCn1cc(CCNC(C)=O)c2cc(OC)ccc21,6.24,5.93,–,–,–,–
COc1ccc2c(c1)c(CCNC(C)=O)cn2CCCCC(=O)NCCCCCCCCCCCNC(=O)CCCCn1cc(CCNC(C)=O)c2cc(OC)ccc21,6.11,6.54,0.078,0.217,0.901,10.1
COc1ccc2c(c1)c(CCNC(C)=O)cn2CCCCC(=O)NCCCCCCCCCCNC(=O)CCCCn1cc(CCNC(C)=O)c2cc(OC)ccc21,6.33,6.62,0.098,0.223,1.39,9.28
CCCCCCNC(=O)CCCCn1cc(CCNC(C)=O)c2cc(OC)ccc21,5.79,6.41,–,–,–,–
COc1ccc2c(c1)c(CCNC(C)=O)cn2CC(=O)NCCCCCCCCCCCNC(=O)Cn1cc(CCNC(C)=O)c2cc(OC)ccc21,5.12,6.53,–,–,–,–
COc1ccc2c(c1)c(CCNC(C)=O)cn2CC(=O)NCCCCCCCCCNC(=O)Cn1cc(CCNC(C)=O)c2cc(OC)ccc21,4.83,4.93,–,–,–,–
COc1ccc2c(c1)c(CCNC(C)=O)cn2CCCCC(=O)NCCCCCCCCNC(=O)CCCCn1cc(CCNC(C)=O)c2cc(OC)ccc21,6.17,6.74,–,–,–,–
COc1ccc2c(c1)c(CCNC(C)=O)cn2CCCCC(=O)NCCCCCCCCCNC(=O)CCCCn1cc(CCNC(C)=O)c2cc(OC)ccc21,6.23,6.79,–,–,–,–
COc1ccc2c(c1)c(CCNC(C)=O)cn2CCCCC(=O)NCCCCCCNC(=O)CCCCn1cc(CCNC(C)=O)c2cc(OC)ccc21,5.64,5.9,–,–,–,–
COc1ccc2c(c1)c(CCNC(C)=O)cn2CC(=O)NCCCCCCCCCCCCNC(=O)Cn1cc(CCNC(C)=O)c2cc(OC)ccc21,6.47,7.02,–,–,–,–
COc1ccc2c(c1)c(CCNC(C)=O)cn2CCCCC(=O)NCCCCCCCCCCCCNC(=O)CCCCn1cc(CCNC(C)=O)c2cc(OC)ccc21,6.08,6.67,0.062,0.2,1.15,6.81
COc1ccc2c(c1)c(CCNC(C)=O)cn2CC(=O)NCCCCCCCCCCNC(=O)Cn1cc(CCNC(C)=O)c2cc(OC)ccc21,6.37,7.34,–,–,–,–
